Each block holds one molecule with its values, some of them ahead of it.
Experiments:
[1] = Release of SNAC from tablets with or without sodium bicarbonate in simulated gastric buffer; assay type: physicochemical; details: tablet with 100 mg sodium bicarbonate vs without; simulated gastric buffer pH 2.0, 37° C., 50 rotations per minute; FIG. 24
Procedure: The tablets were in a form of a homogeneous mixture. Each tablet formulation was subjected to a dissolution test in 100 ml of simulated gastric buffer (without pepsin), pH 2.0, at 37° C., according to USP 23 Apparatus 2 (paddle) with 50 rotations per minute. The amount of released SNAC in each sample was determined chromatographically, using an HPLC apparatus with Cosmosil™ 5 C18-MS-II (4.6 ID×250 mm) column. Mobile phase consisted of 50% acetonitrile and 50% phosphoric acid solution (0.1%). Flow rate was 1 ml/minute and injection volume was 25 μl. Amount of released SNAC was calculated as a percentage of the amount of SNAC in the formulation.

[2] = Open label comparative pharmacokinetic study: oral teriparatide tablet with water or sodium bicarbonate solution; assay type: in vivo, human; details: 0.75 mg oral tablet with 150 ml of 3 mg/ml sodium bicarbonate solution vs 150 ml water; ten healthy volunteers; FIG. 25
Procedure: An open label comparative pharmacokinetic study was performed on ten healthy volunteers. On different visits, each volunteer received the same oral tablet containing 0.75 mg of teriparatide, a recombinant form of parathyroid hormone (1-34) (PTH(1-34)). In the first visit, the tablet was administered with 150 ml water, whereas in the second visit the tablet was administered with 150 ml of 3 mg/ml sodium bicarbonate aqueous solution.
The formulation was composed of teriparatide (0.75 mg), SNAC (sodium 8-N-(2-hydroxybenzoyl) aminocaprylate), soybean trypsin inhibitor (SBTI) and a small amount of magnesium stearate.
Tablets were administered in the morning after an 8-hour overnight fast. At each visit a standard meal was provided 3 hours after drug administration. […] There was a two week period between the two visits.
To determine PTH(1-34) concentrations, blood samples were drawn and PTH(1-34) levels were measured using an IDS-iSYS automated assay, using procedures described in Example 1 hereinabove. Relative absorption was determined based on the AUC (area under curve) parameter.

[3] = Phase IIa study: teriparatide serum levels after oral dosing before and after a meal; assay type: in vivo, human; details: second administration on day 1 vs empty stomach
Procedure: (§1) To determine parathyroid hormone(1-34) concentrations, blood samples (4 ml each) were drawn via an indwelling catheter from the forearm vein at predetermined time points. The cannula was flushed with 1.5 ml normal saline after each sampling. In addition, to avoid sample dilution, 1 ml of blood was drawn and discarded before the next sample. The blood samples were taken at following times: baseline (predose), 15 minutes, 30 minutes, 45 minutes, 60 minutes, 75 minutes, 90 minutes, 105 minutes, 2 hours, 3 hours, 4 hours and 5 hours post-administration. Each blood sample was collected into a single tube containing EDTA (ethylenediaminetetraacetic acid) and placed on ice. Within 15 minutes of blood collection, samples were centrifuged for 10 minutes at 4° C. […] PTH levels were measured using an IDS-iSYS automated assay for the measurement of intact PTH in human plasma or serum.
Teriparatide was administered 4 times per day, prior to meals, for 16 weeks. […] On the first day of treatment during follow up visits at the end of weeks 1, 2, 3, 4, 6, 8, 10, 12 and 16, serum calcium, phosphorus, albumin, and creatinine were evaluated, and dose adjustment of supplemental calcium medications was performed based on albumin adjusted calcium (ACa) levels. […] Quality of Life was (QoL) was monitored using a standard questionnaire.

[4] = test system: plasma levels of cAMP, a known marker of PTH activity; assay: Phase I clinical study: plasma cAMP as marker of PTH activity; assay type: in vivo, human; details: oral 680 μg and subcutaneous 20 μg teriparatide; FIG. 3
Procedure: In addition, plasma levels of cAMP, a known marker of PTH activity, were determined in order to confirm biological activity of administered PTH. cAMP plasma levels were measured following oral administration of 680 μg teriparatide or subcutaneous injection of 20 μg teriparatide, as described hereinabove.

[5] = test system: hypoparathyroidism; details: cited from earlier work
[6] = Phase I clinical study: plasma PTH(1-34) after oral teriparatide tablets vs subcutaneous injection; assay type: in vivo, human; details: healthy volunteers, FIG. 1
Procedure: A Phase I clinical study of exemplary oral formulations comprising teriparatide (parathyroid hormone (1-34)) was conducted at the Hadassah Clinical Research Center. 42 healthy volunteers were included throughout the study.
The formulation was composed of teriparatide (200, 400, 680, 1400 or 1800 μg), SNAC (sodium 8-N-(2-hydroxybenzoyl) aminocaprylate), soybean trypsin inhibitor and magnesium stearate.
Tablets were administered in the morning after an 8-hour overnight fast and immediately followed by 150 ml of water. At each visit a standard meal was provided 3 hours after drug administration.
as §1, with “ice.” for “ice. Within 15 minutes of blood collection, samples were centrifuged for 10 minutes at 4° C.”, “serum. […]” for “serum.”

[7] = test system: patients with established primary hypoparathyroidism (PHP); assay: Phase IIa multi-center clinical study of oral teriparatide, 4 times per day for 16 weeks; assay type: in vivo, human
Procedure: A Phase IIa multi-center clinical study of an exemplary oral formulation comprising teriparatide was conducted on 19 patients with established primary hypoparathyroidism (PHP) (for more than one year). PHP was postsurgical in 13 patients, autoimmune in 5 patients and hereditary in 1 patient.
The average age of the patients was 44.5 years (range 20.3 to 71 years). At enrollment, the patients were treated with an average of 3.64 grams calcium supplement per day (range 1-10.8 grams per day) and 1.1 μg alphacalcidol supplement per day (range 0-2 μg per day). Patients with low hemoglobin, estimated glomerular filtration rate (eGFR) of less than 40 ml per minute per 1.73 m^2, liver enzymes at least 3 times the upper limit, drug or alcohol abuse, kidney/urinary tract stones, 25-hydroxycholecalciferol (25(OH)D) serum levels of less than 20 ng/ml or BMI outside the range of […] were excluded from the study.
The formulation was composed of teriparatide (750 μg per dose), SNAC, soybean trypsin inhibitor and magnesium stearate.
Teriparatide was administered 4 times per day, prior to meals, for 16 weeks. Following the first two doses, plasma samples were taken for pharmacokinetic analysis by determining teriparatide serum levels according to procedures described in Example 1. On the first day of treatment during follow up visits at the end of weeks 1, 2, 3, 4, 6, 8, 10, 12 and 16, serum calcium, phosphorus, albumin, and creatinine were evaluated, and dose adjustment of supplemental calcium medications was performed based on albumin adjusted calcium (ACa) levels. 24 hour urine samples were collected at the end of weeks 8 and 16. Quality of Life was (QoL) was monitored using a standard questionnaire.

[8] = patient, 16-week treatment, FIG. 8

dissolution of SNAC from tablets, effect of sodium bicarbonate [1]: considerably enhanced the dissolution
Structure (SMILES): O=C(O)CCCCCCCNC(=O)c1ccccc1O [SNAC, sodium 8-N-(2-hydroxybenzoyl)aminocaprylate]

increase in absorption of PTH(1-34) (AUC) [2]: about 35% | PTH(1-34) serum levels, after a meal relative to prior to a meal, sample case ([3]; patient, FIG. 10): about half | PTH(1-34) serum levels, after a meal relative to prior to a meal ([3]; FIGS. 6 and 7): about half | Cmax of PTH(1-34) following oral administration, relation to dose ([6]; oral doses 200, 400, 680, 1400 or 1800 μg): proportional to the dose | oral dose of teriparatide providing a Cmax equivalent to that of subcutaneous administration of 20 μg teriparatide ([6]; oral tablets with SNAC, soybean trypsin inhibitor, magnesium stearate, 8-hour overnight fast): roughly 750 μg
Structure (SMILES): CC[C@H](C)[C@H](NC(=O)[C@H](CCC(=O)O)NC(=O)[C@H](CO)NC(=O)[C@@H](NC(=O)[C@@H](N)CO)C(C)C)C(=O)N[C@@H](CCC(N)=O)C(=O)N[C@@H](CC(C)C)C(=O)N[C@@H](CCSC)C(=O)N[C@@H](Cc1cnc[nH]1)C(=O)N[C@@H](CC(N)=O)C(=O)N[C@@H](CC(C)C)C(=O)NCC(=O)N[C@@H](CCCCN)C(=O)N[C@@H](Cc1cnc[nH]1)C(=O)N[C@@H](CC(C)C)C(=O)N[C@@H](CC(N)=O)C(=O)N[C@@H](CO)C(=O)N[C@@H](CCSC)C(=O)N[C@@H](CCC(=O)O)C(=O)N[C@@H](CCCN=C(N)N)C(=O)N[C@H](C(=O)N[C@@H](CCC(=O)O)C(=O)N[C@@H](Cc1c[nH]c2ccccc12)C(=O)N[C@@H](CC(C)C)C(=O)N[C@@H](CCCN=C(N)N)C(=O)N[C@@H](CCCCN)C(=O)N[C@@H](CCCCN)C(=O)N[C@@H](CC(C)C)C(=O)N[C@@H](CCC(N)=O)C(=O)N[C@@H](CC(=O)O)C(=O)N[C@H](C(=O)N[C@@H](Cc1cnc[nH]1)C(=O)N[C@@H](CC(N)=O)C(=O)N[C@@H](Cc1ccccc1)C(=O)O)C(C)C)C(C)C [teriparatide]
plasma cAMP levels [4]: increased plasma cAMP levels to a similar degree | reduction in the PTH dose needed to maintain normal serum calcium levels ([5]; pump vs twice-daily subcutaneous injection, from 37 μg per day to 13 μg per day): 65% | reduction in urine calcium ([5]; subcutaneous infusion by insulin pump vs twice-daily subcutaneous injection): more than 50% | urinary calcium, margin below the upper limit of normal ([7]; 3 subjects with sustained elevations): more than 30% | average decrease in urinary calcium ([7]; 13 subjects with sustained decrease): 34% | urinary calcium ([7]; 13 subjects with sustained decrease, from 209 mg per 24 hours): 136 mg per 24 hours | serum phosphorus after each dose, range ([7]; 60 minutes after oral dose, throughout 16 weeks): 2.9 to 5.2 mg/dL | serum phosphorus, average level after each dose ([7]; 60 minutes after oral dose, throughout 16 weeks, p<0.02, FIG. 5): 4.3 mg/dL | pre-dose serum phosphorus levels ([7]; FIG. 5): reduced following 2 weeks of treatment | reduction of calcium intake ([7]; after 16 weeks, relative to baseline): 1278 ± 880 mg | average reduction of calcium intake ([7]; after 16 weeks, relative to baseline, FIG. 4): 37% | calcium intake ([7]; after 16 weeks, baseline 3692 mg): 2414 mg | subjects with urinary calcium above the normal range ([7]; at the end of 16 weeks, subjects who completed the study): one of the 17 | albumin adjusted calcium, range ([7]; during treatment, baseline range 7.2-8.99): 6.97-9.14 md/dL | albumin adjusted calcium, mean level ([7]; maintained during treatment while calcium intake was decreased, baseline 7.92): 8.15 mg/dL | related adverse events ([7]; oral 750 μg per dose, 4 times per day, 16 weeks, 17 subjects completed): no related adverse events | safety and tolerability ([7]; oral 750 μg per dose, 4 times per day, 16 weeks, 17 subjects completed, over 8000 doses): safe and well tolerated | reduction of calcium intake, sample case [7, 8]: over 50% | reduction of urinary calcium levels, sample case [7, 8]: over 50% | total serum levels of 25-hydroxycholecalciferol (25(OH)D), sample case ([7]; patient, end of week 4, baseline 32.2 ng/ml, constant alphacalcidol): 36.7 ng/mL | ACa levels, sample case ([7]; patient, FIG. 9): gradually increased | serum phosphate levels, sample case ([7]; patient, FIG. 9): gradually decreased | Quality of Life health score, sample case ([7]; patient, increased from 70): 80
